Columns and labels:
bluetongue virus (BTV) = assay: Bluetongue virus inactivation in platelet units with amotosalen/UVA, plaque assay; assay type: cell-based
Procedure: A study was performed to evaluate pathogen inactivation with treatment profiles from Example 1 and the non-enveloped virus bluetongue virus (BTV). Units of platelets, prepared in 47% plasma/53% PAS at a volume of 250 mL, were inoculated with BTV (targeting the final concentration in unit of approximately 4.5 log PFU/mL), and dosed with the target amotosalen concentration (40 μM, 50 μM, 60 μM, or 70 μM) in an illumination container of an INTERCEPT® Blood System processing set. The units were mixed well, and samples were collected from each unit prior to UV illumination to determine pre-treatment viral titers and amotosalen concentration. The BTV-contaminated platelet units were then subjected to a UVA light dose of 3.8 J/cm^2 using an illuminator with LED light sources having peak wavelength between 340-350 nm. Samples were collected post-illumination, and both the pre- and post-UVA illumination samples were analyzed by standard plaque assay to determine the level of virus inactivation.
(§1) Pathogen inactivation of both viruses and bacteria was also tested using dosing device system-based quantized dosing of amotosalen and the treatment parameters described above. In one study, four units of platelets in 47% plasma/53% PAS at a higher 450 mL volume were inoculated in a 1.3 L illumination container with bluetongue virus (BTV) at a target pathogen input concentration of approximately 5.0 log PFU/mL per unit and dosed with amotosalen (S-59) to achieve at a target concentration of 55 μM. The units were mixed, and samples were collected from each unit prior to UV illumination to determine pre-treatment viral titers and S-59 concentration. The BTV-contaminated platelet units were then subjected to a UVA light dose of 6.3 J/cm^2 using an illuminator with LED light sources having peak wavelength between 340-350 nm. Samples were collected post-illumination, and both the pre- and post-UVA illumination samples were analyzed by standard plaque assay to determine the level of virus inactivation and by HPLC to determine the S-59 concentration.

[1] = S-59 photoconversion in platelets after dosing-device delivery, HPLC pre- and post-illumination; assay type: physicochemical; conditions: target 55 μM
Procedure: After confirming the accuracy of S-59 dosing into PAS, the next study evaluated dosing of S-59 into a blood component, platelets suspended in plasma and PAS, and photoconversion of S-59 post-UVA treatment to determine residual S-59 levels and generate (e.g., plot) a volume to light dose curve, similar to Example 1. Different size illumination containers (1.0 L and 1.3 L) were evaluated with multiple different platelet volumes and multiple different UVA light doses used for photochemical treatment of each volume and container size.
More specifically, platelets suspended in […]/53% PAS at volumes of 200 mL, 250 mL or 300 mL in a 1.0 L illumination container, and 300 mL, 350 mL or 450 mL in a 1.3 L illumination container, were dosed at varying input volumes of the S-59 psoralen compound to achieve a target final concentration of 55 μM. Samples were taken to confirm pre-illumination S-59 concentration and each of the S-59 containing platelet volumes was then illuminated with different light doses as shown in the following Tables 8A and 8B using an illuminator device with LED light sources (e.g., narrow bandwidth) having peak wavelength between 340-350 nm.
as §1
A similar study was performed with the bacterium Klebsiella pneumoniae. Four units of platelets in 47% plasma/53% PAS at a volume of 450 mL were inoculated in a 1.3 L illumination container with an overnight culture of Klebsiella pneumoniae at a target input pathogen concentration of approximately 8 log CFU/mL per unit and dosed with S-59 to achieve a target concentration of 55 μM. Samples were collected pre- and post-UVA illumination with a light dose of 6.3 J/cm^2 for determination of bacterial titers by standard colony forming unit assay and S-59 concentration by HPLC.

adenovirus type 5 (Ad5) = assay: Adenovirus type 5 inactivation in platelet units with amotosalen/UVA, plaque assay; assay type: cell-based; conditions: for Log Reduction / Post-UVA PFU/mL: 250 mL platelets, UVA 3.8 J/cm^2
Procedure: Another study was performed evaluating pathogen inactivation with treatment profiles from Example 1 and the non-enveloped virus adenovirus type 5 (Ad5). Units of platelets, prepared in 47% plasma/53% PAS at a volume of 250 mL, were inoculated with Ad5 (targeting the final concentration in unit of approximately 4.5 or 6.5 log PFU/mL), and dosed with the target amotosalen concentration (45 μM or 50 μM) in an illumination container of an INTERCEPT® Blood System processing set. The units were mixed well, and samples were collected from each unit prior to UV illumination to determine pre-treatment viral titers and amotosalen concentration. The Ad5-contaminated platelet units were then subjected to a UVA light dose of 3.8 J/cm^2 using an illuminator with LED light sources having peak wavelength between 340-350 nm. Samples were collected post-illumination and both the pre- and post-UVA illumination samples were analyzed by standard plaque assay to determine the level of virus inactivation.

[2] = device-dosed S-59 target 55 μM, 450 mL platelets, 1.3 L container, UVA 6.3 J/cm^2
[3] = target S-59 40 μM, 250 mL platelets, UVA 3.8 J/cm^2
[4] = target S-59 50 μM, 250 mL platelets, UVA 3.8 J/cm^2
[5] = target S-59 60 μM, 250 mL platelets, UVA 3.8 J/cm^2
[6] = target S-59 70 μM, 250 mL platelets, UVA 3.8 J/cm^2
[7] = target S-59 45 μM, Pre-UVA 4.1 Log PFU/mL
[8] = target S-59 50 μM, Pre-UVA 4.5 Log PFU/mL
[9] = target S-59 50 μM, Pre-UVA 6.7 Log PFU/mL

Cc1oc2c(C)c3oc(=O)cc(C)c3cc2c1COCCN [S-59, 3-(2-aminoethoxymethyl)-2,5,9-trimethylfuro[3,2-g]chromen-7-one]
Log Reduction (bluetongue virus (BTV); [2]): 5.0±0.4 Log (pfu/mL)
Post-UVA titer (bluetongue virus (BTV); [2]): 0.7 ± 0.6 pfu/mL
viral inactivation (bluetongue virus (BTV); each of the four target amotosalen input concentrations (40, 50, 60, 70 μM)): greater than 4 logs
Log Reduction (bluetongue virus (BTV); [3]): 4.4 ± 0.1 log
Post-UVA PFU/mL (bluetongue virus (BTV); [3]): 0.3 ± 0.1 PFU/mL
Log Reduction (bluetongue virus (BTV); [4]): 4.4 ± 0.4 log
Post-UVA PFU/mL (bluetongue virus (BTV); [4]): 0.1 ± 0.1 PFU/mL
Log Reduction (bluetongue virus (BTV); [5]): >4.6 ± 0.5 log
Post-UVA PFU/mL (bluetongue virus (BTV); [5]): 0.02 ± 0.03 PFU/mL
Log Reduction (bluetongue virus (BTV); [6]): 4.2 ± 0.1 log
Post-UVA PFU/mL (bluetongue virus (BTV); [6]): 0.1 ± 0.2 PFU/mL
Post-UVA S-59 ([1]; 1.0 L container, 200 mL platelets, 2.8 J/cm^2): 5.22 ± 0.50 µM
Post-UVA S-59 ([1]; 1.0 L container, 200 mL platelets, 3.0 J/cm^2): 4.40 ± 0.64 µM
Post-UVA S-59 ([1]; 1.0 L container, 200 mL platelets, 3.2 J/cm^2): 3.71 ± 0.07 µM
Post-UVA S-59 ([1]; 1.0 L container, 200 mL platelets, 3.4 J/cm^2): 3.09 ± 0.18 µM
Post-UVA S-59 ([1]; 1.0 L container, 250 mL platelets, 3.4 J/cm^2): 4.25 ± 0.13 µM
Post-UVA S-59 ([1]; 1.0 L container, 250 mL platelets, 3.6 J/cm^2): 3.83 ± 0.74 µM
Post-UVA S-59 ([1]; 1.0 L container, 250 mL platelets, 3.8 J/cm^2): 3.81 ± 0.49 µM
Post-UVA S-59 ([1]; 1.0 L container, 250 mL platelets, 4.0 J/cm^2): 3.11 ± 1.18 µM
Post-UVA S-59 ([1]; 1.0 L container, 300 mL platelets, 4.1 J/cm^2): 7.13 ± 2.95 µM
Post-UVA S-59 ([1]; 1.0 L container, 300 mL platelets, 4.3 J/cm^2): 6.85 ± 3.00 µM
Post-UVA S-59 ([1]; 1.0 L container, 300 mL platelets, 4.6 J/cm^2): 2.86 ± 1.36 µM
Post-UVA S-59 ([1]; 1.0 L container, 300 mL platelets, 4.8 J/cm^2): 3.63 ± 1.66 µM
Post-UVA S-59 ([1]; 1.3 L container, 300 mL platelets, 4.1 J/cm^2): 4.64 ± 0.13 µM
Post-UVA S-59 ([1]; 1.3 L container, 300 mL platelets, 4.3 J/cm^2): 3.43 ± 1.30 µM
Post-UVA S-59 ([1]; 1.3 L container, 350 mL platelets, 4.8 J/cm^2): 3.54 ± 1.01 µM
Post-UVA S-59 ([1]; 1.3 L container, 350 mL platelets, 5.0 J/cm^2): 2.98 ± 0.91 µM
Post-UVA S-59 ([1]; 1.3 L container, 450 mL platelets, 6.1 J/cm^2): 3.79 ± 0.49 µM
Post-UVA S-59 ([1]; 1.3 L container, 450 mL platelets, 6.3 J/cm^2): 3.56 ± 0.37 µM
Post-UVA S-59 ([1]; BTV-inoculated units, 450 mL platelets, 1.3 L container, 6.3 J/cm^2): 3.0 ± 0.7 µM
Post-UVA S-59 ([1]; K. pneumoniae-inoculated units, 450 mL platelets, 1.3 L container, 6.3 J/cm^2): 3.2 ± 0.5 µM
viral inactivation (adenovirus type 5 (Ad5); each of the 45 μM or 50 μM target amotosalen input concentrations): greater than 4 logs
Log Reduction (adenovirus type 5 (Ad5); [7]): >4.1 ± 0.2 log
Post-UVA PFU/mL (adenovirus type 5 (Ad5); [7]): 0.0 ± 0.0 PFU/mL
Log Reduction (adenovirus type 5 (Ad5); [8]): 4.5 ± 0.0 log
Post-UVA PFU/mL (adenovirus type 5 (Ad5); [8]): 0.0 ± 0.0 PFU/mL
Log Reduction (adenovirus type 5 (Ad5); [9]): ≥6.3 ± 0.5 log
Post-UVA PFU/mL (adenovirus type 5 (Ad5); [9]): ≤6.9 ± 12.7 PFU/mL

From patent US20260034277A1, “SYSTEMS AND METHODS FOR PATHOGEN INACTIVATION OF BLOOD PRODUCTS” (Cerus Corporation, priority 2024, published 2026)
